Literature values, collected in patent publication US20040039036A1, “Water-soluble liquid internal medicine” (priority 2000, published 2004).

Conditions: JP-A-11-193233 injectable solution, famotidine 1 mg/mL; after preservation at 40° C. for 2 months

NC(N)=Nc1nc(CSCCC(N)=NS(N)(=O)=O)cs1 [famotidine]
residual rate: 96.6%
